US5047244A, “Mucoadhesive carrier for delivery of therapeutical agent” (priority 1988, dated 1991)
Converted amounts (≈) assume the structure as drawn.

Legend:
Type in all cases: physicochemical
[1] = In vitro therapeutic agent release (USP Dissolution Test Method II, 0.05M isotonic phosphate buffer pH 6.0 with 30 weight percent PEG 400); settings: for In vitro release of 17 β-estradiol: Example 17 carrier (Table XIX, mannitol); for Therapeutic Agent Release Parameter, T, 20% / Therapeutic Agent Release Parameter, T, 50% / Therapeutic Agent Release Parameter, T, 75% / Therapeutic Agent Release Parameter, T, 90%: Example 7 carrier (Table VII), 20 mg agent, agent:PEG 8000 1:2; for In vitro release of dehydroepiandrosterone: Example 12 carrier, 5 mg DHEA
Method: Therapeutic agent release studies were conducted using an Erweka dissolution test assembly in compliance with Dissolution Test Method II as described in The United States Pharmacopeia, 24th revision (USP XXIV). Five hundred milliliters of a 0.1M phosphate buffer dissolution fluid was maintained at about 37° C. (about 100° F.) and the […] was rotated at 50 revolutions per minute (rpm). At predetermined time points, samples of approximately 3 milliliters of the test medium were withdrawn from the flasks and immediately replaced with an equivalent volume of blank buffer. Analysis of the samples was performed by ultraviolet spectrophotometry. […] The time to achieve 20%, 50% and 80% by weight dissolution of the piroxicam was estimated from a linear plot of percent dissolved versus time.
Therapeutic agent release testing was conducted by the USP Dissolution Test Method II. The dissolution medium chosen was 500 ml of a 0.05M isotonic phosphate buffer having a 6.0 pH with 30 weight percent PEG 400.
An equivalent of 20 mg of albuterol in a mucosal composition of a albuterol:PEG 8000 weight in a ratio of 1:2 was included in each carrier. […] Plots of weight percent therapeutic agent released versus time were constructed and the drug release parameter T (in hours) for a given weight and percent drug released was calculated from the plots.

[2] = as above; settings: for In vitro release of 17 β-estradiol: Example 17 carrier (Table XIX, mannitol); for In vitro release of therapeutic agent: 20 mg piroxicam
[3] = Saturation solubility in phosphate buffer; settings: 0.1m phosphate buffer, aqueous buffer

**Q.** With `C[C@]12CC[C@@H]3c4ccc(O)cc4CC[C@H]3[C@@H]1CC[C@@H]2O` [17 β-estradiol] as the compound, how does the “In vitro release of therapeutic agent” value ([1]; Example 10 carrier, 17 β-estradiol, 1 hour) read?
**A.** 2.5 weight percent

**Q.** And the “In vitro release of therapeutic agent” value ([1]; Example 10 carrier, 17 β-estradiol, 2 hours)?
**A.** 4 weight percent

**Q.** What about the “In vitro release of therapeutic agent” value ([1]; Example 10 carrier, 17 β-estradiol, 5 hours) of the same compound?
**A.** 9.5 weight percent

**Q.** And the “In vitro release of therapeutic agent” value ([1]; Example 10 carrier, 17 β-estradiol, 24 hours)?
**A.** 46.3 weight percent

**Q.** And the “In vitro release of 17 β-estradiol” value ([1]; 5 hours)?
**A.** 9.5 weight percent

**Q.** What about the “In vitro release of 17 β-estradiol” value ([1]; 10 hours) of the same compound?
**A.** 15 weight percent

**Q.** And the Order of release ([2]; Example 10 carrier, 17 β-estradiol)?
**A.** apparent zero order process

**Q.** What about the “In vitro release of 17 β-estradiol” value ([2]; 15 hours) of the same compound?
**A.** 17 weight percent

**Q.** What about the “In vitro release of 17 β-estradiol” value ([2]; 20 hours) of the same compound?
**A.** 19.5 weight percent

**Q.** What does the source list for `CC(C)(C)NCC(O)c1ccc(O)c(CO)c1` (stereo not drawn) [Albuterol]?
**A.** Therapeutic Agent Release Parameter, T, 20% [1]: 0.58 h; Therapeutic Agent Release Parameter, T, 50% [1]: 3.16 h; Therapeutic Agent Release Parameter, T, 75% [1]: 5.67 h; Therapeutic Agent Release Parameter, T, 90% [1]: 6.83 h; Time to release 20% by weight of albuterol ([1]; Example 13 carrier (Table XV)): approximately 0.8 hr; Time to release 50% by weight of albuterol ([1]; Example 13 carrier (Table XV)): ~2.6 h; Time to release 75% by weight of albuterol ([1]; Example 13 carrier (Table XV)): ~6 h; Time to release 90% by weight of albuterol ([1]; Example 13 carrier (Table XV)): ~10.5 h; Time to release 20% by weight of albuterol ([1]; Example 14 carrier (Table XVI)): approximately 1 hr; Time to release 50% by weight of albuterol ([1]; Example 14 carrier (Table XVI)): ~3.5 h; Time to release 75% by weight of albuterol ([1]; Example 14 carrier (Table XVI)): ~8 h; Time to release 90% by weight of albuterol ([1]; Example 14 carrier (Table XVI)): ~15 h; In vitro release of albuterol ([1]; Example 15 carrier (Table XVII), 3 hours): 22 weight percent; In vitro release of albuterol ([1]; Example 15 carrier (Table XVII), 7.5 hours): 50 weight percent; In vitro release of albuterol ([1]; Example 15 carrier (Table XVII), 12 hours): 75 weight percent; In vitro release of albuterol ([1]; Example 15 carrier (Table XVII), 18 hours): 90 weight percent; In vitro release of albuterol ([1]; Example 16 carrier (Table XVIII), 2 hours): 27 weight percent; In vitro release of albuterol ([1]; Example 16 carrier (Table XVIII), 5 hours): 50 weight percent; In vitro release of albuterol ([1]; Example 16 carrier (Table XVIII), 10 hours): 73 weight percent; In vitro release of albuterol ([1]; Example 16 carrier (Table XVIII), 19 hours): 90 weight percent

**Q.** Which “Therapeutic Agent Release Parameter, T, 20%” value [1] does the source give for `CC(N)C(O)c1ccccc1` (stereo not drawn) [Phenylpropanolamine] here?
**A.** 0.58 h

**Q.** And the “Therapeutic Agent Release Parameter, T, 50%” value [1]?
**A.** 2.83 h

**Q.** And the “Therapeutic Agent Release Parameter, T, 75%” value [1]?
**A.** 6.04 h

**Q.** And the “Therapeutic Agent Release Parameter, T, 90%” value [1]?
**A.** 8.42 h

**Q.** With `C[C@]12CC[C@H](O)CC1=CC[C@@H]1[C@@H]2CC[C@]2(C)C(=O)CC[C@@H]12` [dehydroepiandrosterone] as the compound, how does the “In vitro release of dehydroepiandrosterone” value ([1]; 6 hours) read?
**A.** 20 weight percent

**Q.** And the “In vitro release of dehydroepiandrosterone” value ([1]; 10.5 hours)?
**A.** 30 weight percent

**Q.** What about the “In vitro release of dehydroepiandrosterone” value ([1]; 13 hours) of the same compound?
**A.** 40 weight percent

**Q.** What about the “In vitro release of dehydroepiandrosterone” value ([1]; 23 hours) of the same compound?
**A.** 50 weight percent

**Q.** Which “In vitro release of therapeutic agent” value ([1]; Example 9 carrier, 20 mg piroxicam, 6 hours) does the source give for `CN1C(C(=O)Nc2ccccn2)=C(O)c2ccccc2S1(=O)=O` [piroxicam] here?
**A.** 24.1 weight percent

**Q.** What about the “In vitro release of therapeutic agent” value ([1]; Example 9 carrier, 20 mg piroxicam, 23 hours) of the same compound?
**A.** 56 weight percent

**Q.** What about the “In vitro release of therapeutic agent” value ([1]; Example 9 carrier, 20 mg piroxicam, one hour) of the same compound?
**A.** 5 weight percent

**Q.** What about the Order of release ([1]; Example 9 carrier, piroxicam) of the same compound?
**A.** apparent zero order rate

**Q.** And the “In vitro release of therapeutic agent” value ([2]; Example 9 carrier, three hours)?
**A.** 13 weight percent

**Q.** What about the “In vitro release of therapeutic agent” value ([2]; Example 9 carrier, two hours) of the same compound?
**A.** 9 weight percent

**Q.** And the “Therapeutic agent remaining in the carrier” value ([2]; Example 9 carrier, piroxicam, after 23 hours)?
**A.** 36-47 weight percent

**Q.** And the solubility [3]?
**A.** ~7700 µg/mL (≈ 23.2 mM)
